From patent US20240158446A1, “CYCLIC COMPOUND HAVING SELECTIVE INHIBITORY ACTION ON KRAS OVER HRAS AND NRAS” (CHUGAI SEIYAKU KABUSHIKI KAISHA, priority 2021, published 2024)
Read-outs that look alike come from different tables or passages of the source.

Assays:
[1] = molecular target: GDP-bound HRAS wild-type protein (Homo sapiens, UniProt P01112); assay: Binding to HRAS by surface plasmon resonance (SPR), Single Cycle Kinetics; details: for HRAS/KRAS (ratio of KD value with respect to GDP-bound HRAS wild-type protein to KD value with respect to KRAS): SPR KD ratio HRAS/KRAS, class symbols; for HRAS/KRAS (ratio of KD value for HRAS to KD value for KRAS): SPR, GDP-bound HRAS wild-type protein vs GDP-bound KRAS wild-type protein
[2] = tested on: human lung cancer strain NCI-H441;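 note: cell proliferation inhibition after four days measured by CellTiter-Glo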
[3] = molecular target: GDP-bound NRAS wild-type protein (Homo sapiens, UniProt P01111); assay: Binding to NRAS by surface plasmon resonance (SPR), Single Cycle Kinetics; details: for NRAS/KRAS (ratio of KD value with respect to GDP-bound NRAS wild-type protein to KD value with respect to KRAS): SPR KD ratio NRAS/KRAS, class symbols; for NRAS/KRAS (ratio of KD value for NRAS to KD value for KRAS): SPR, GDP-bound NRAS wild-type protein vs GDP-bound KRAS wild-type protein
[4] = molecular target: GDP-bound KRAS wild-type protein (Homo sapiens, UniProt P01116); assay: Binding to KRAS by surface plasmon resonance (SPR), Single Cycle Kinetics; details: GDP-bound KRAS wild-type protein, read-out: KRAS KD
[5] = SPR Single Cycle Kinetics, 1:1 binding model
[6] = SPR, Single Cycle Kinetics, 1:1 binding model

GDP-bound NRAS wild-type protein, sequence (P01111 whole entry): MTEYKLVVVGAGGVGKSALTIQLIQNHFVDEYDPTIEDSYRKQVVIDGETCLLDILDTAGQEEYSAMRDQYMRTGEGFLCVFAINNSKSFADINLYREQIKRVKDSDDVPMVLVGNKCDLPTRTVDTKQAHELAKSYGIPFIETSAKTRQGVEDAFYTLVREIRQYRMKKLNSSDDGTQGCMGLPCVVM
GDP-bound KRAS wild-type protein, sequence (P01116 whole entry): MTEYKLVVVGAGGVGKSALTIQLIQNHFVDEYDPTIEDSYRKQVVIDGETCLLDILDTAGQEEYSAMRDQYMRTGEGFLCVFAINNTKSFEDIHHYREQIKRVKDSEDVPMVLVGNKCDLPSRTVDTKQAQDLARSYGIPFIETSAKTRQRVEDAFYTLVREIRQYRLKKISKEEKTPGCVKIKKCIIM
GDP-bound HRAS wild-type protein, sequence (P01112 whole entry): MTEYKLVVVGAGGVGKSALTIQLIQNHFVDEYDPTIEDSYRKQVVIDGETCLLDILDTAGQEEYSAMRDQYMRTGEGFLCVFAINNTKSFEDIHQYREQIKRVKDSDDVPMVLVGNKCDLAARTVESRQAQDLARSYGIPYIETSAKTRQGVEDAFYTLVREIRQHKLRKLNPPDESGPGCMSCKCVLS

Row | SMILES | IC50 [2] [nM] | Kd [4, 5] [nM] | Kd [4, 6] [nM] | Kd ([4]; SPR, Single Cycle Kinetics) [nM] | HRAS/KRAS (ratio of KD value with respect to GDP-bound HRAS wild-type protein to KD value with respect to KRAS) [1] | NRAS/KRAS (ratio of KD value with respect to GDP-bound NRAS wild-type protein to KD value with respect to KRAS) [3] | HRAS/KRAS (ratio of KD value for HRAS to KD value for KRAS) ([1]; KD ratio class) | NRAS/KRAS (ratio of KD value for NRAS to KD value for KRAS) ([3]; KD ratio class) | HRAS/KRAS (ratio of KD value for HRAS to KD value for KRAS) [1] | NRAS/KRAS (ratio of KD value for NRAS to KD value for KRAS) [3]
1 | CCO[C@@H]1C[C@H]2C(=O)NC3(CC(C)(C)C3)C(=O)N(C)[C@@H](C(CC)CC)C(=O)N(C)[C@H](C(=O)N(C)C)CC(=O)N(C)[C@@H](COC)C(=O)N[C@@H]([C@@H](C)CC)C(=O)N(C3CC3)CC(=O)N(C)[C@H]3C/C=C\CCN(C3=O)[C@@H](CC3CCC(F)(F)CC3)C(=O)N(C)CC(=O)N[C@@H](CCc3cc(F)c(C(F)(F)F)c(F)c3)C(=O)N2C1 [PP2568] | 23.4 | 1.2 | – | – | B (a compound having 3 or more and less than 10 is denoted as B) | A (a compound having 10 or more and less than 20 is denoted as A) | – | – | – | –
2 | CCO[C@@H]1C[C@H]2C(=O)NC3(CCC3)C(=O)N(C)[C@@H](C(CC)CC)C(=O)N(C)[C@H](C(=O)N3CCOCC3)CC(=O)N(C)[C@@H](CC(C)C)C(=O)N[C@@H]([C@@H](C)CC)C(=O)N(C)CC(=O)N(C)[C@H]3C/C=C\CCN(C3=O)[C@@H](Cc3ccc(C(F)(F)F)cc3)C(=O)N(C)CC(=O)N[C@@H](CCc3cc(F)c(C(F)(F)F)c(F)c3)C(=O)N2C1 [PP1287] | 49.7 | – | 0.56 | – | – | – | A (a compound having 10 or more and less than 20 is denoted as A) | AA (a compound having 20 or more is denoted as AA) | – | –
3 | CCO[C@@H]1C[C@H]2C(=O)NC3(CCCC3)C(=O)N(C)[C@@H](C3CCCC3)C(=O)N(C)[C@H](C(=O)N3CCOCC3)CC(=O)N(C)[C@@H](COC)C(=O)N[C@@H]([C@@H](C)CC)C(=O)N3CC[C@H]3C(=O)N(C)[C@H]3CCCCCN(C3=O)[C@@H](Cc3ccc(C(F)(F)F)cc3)C(=O)N(C)CC(=O)N[C@@H](CCc3cc(F)c(C(F)(F)F)c(F)c3)C(=O)N2C1 [PP0867] | 206 | – | – | 1.2 | – | – | – | – | B (a compound having 3 or more and less than 10 is denoted as B) | B (a compound having 3 or more and less than 10 is denoted as B)
4 | C=CCC[C@H]1C(=O)N[C@@H]([C@@H](C)CC)C(=O)N(C)CC(=O)N(C)[C@H]2CCCCCN(C2=O)[C@@H](Cc2ccc(C(F)(F)F)cc2)C(=O)N(C)CC(=O)N[C@@H](CCc2cc(F)c(C(F)(F)F)c(F)c2)C(=O)N2C[C@H](OCC)C[C@H]2C(=O)N[C@](C)(CC=C)C(=O)N(C)[C@@H](C2CCCC2)C(=O)N(C)[C@H](C(=O)N2CCOCC2)CC(=O)N1C [PP0879] | 195 | – | – | 8.6 | – | – | – | – | B (a compound having 3 or more and less than 10 is denoted as B) | B (a compound having 3 or more and less than 10 is denoted as B)
5 | CC[C@H](C)[C@@H]1NC(=O)[C@H](CC)N(C)C(=O)C[C@@H](C(=O)N(C)C)N(C)C(=O)[C@H](C2CCCC2)N(C)C(=O)C2(CCC2)NC(=O)[C@@H]2CCCN2C(=O)[C@H](CCc2cc(F)c(C(F)(F)F)c(F)c2)NC(=O)CN(C)C(=O)[C@H](CC2CCCCC2)N2CC/C=C\C[C@@H](C2=O)N(C)C(=O)CN(C)C1=O [PP1475] | 48.9 | – | 0.55 | – | – | – | A (a compound having 10 or more and less than 20 is denoted as A) | A (a compound having 10 or more and less than 20 is denoted as A) | – | –
6 | CCO[C@@H]1C[C@H]2C(=O)NC3(CCC3)C(=O)N(C)[C@@H](C(CC)CC)C(=O)N(C)[C@H](C(=O)N(C)C)CC(=O)N(C)[C@@H](CC3CC3)C(=O)N[C@@H]([C@@H](C)CC)C(=O)N(C)CC(=O)N(C)[C@H]3C/C=C\CCN(C3=O)[C@@H](Cc3ccc(C(F)(F)F)cc3)C(=O)N(C)CC(=O)N[C@@H](CCc3cc(F)c(Cl)c(F)c3)C(=O)N2C1 [PP1233] | 34.7 | – | 0.66 | – | – | – | A (a compound having 10 or more and less than 20 is denoted as A) | AA (a compound having 20 or more is denoted as AA) | – | –

Continued, in another order:

Row | IC50 [2] [nM] | Kd [4, 5] [nM] | Kd [4, 6] [nM] | Kd ([4]; SPR, Single Cycle Kinetics) [nM] | SMILES | HRAS/KRAS (ratio of KD value with respect to GDP-bound HRAS wild-type protein to KD value with respect to KRAS) [1] | NRAS/KRAS (ratio of KD value with respect to GDP-bound NRAS wild-type protein to KD value with respect to KRAS) [3] | HRAS/KRAS (ratio of KD value for HRAS to KD value for KRAS) ([1]; KD ratio class) | NRAS/KRAS (ratio of KD value for NRAS to KD value for KRAS) ([3]; KD ratio class) | HRAS/KRAS (ratio of KD value for HRAS to KD value for KRAS) [1] | NRAS/KRAS (ratio of KD value for NRAS to KD value for KRAS) [3]
7 | 465 | – | 0.99 | – | CCO[C@@H]1C[C@H]2C(=O)NC3(CCC3)C(=O)N(C)[C@@H](C3CCCC3)C(=O)N(C)[C@H](C(=O)N(C)C)CC(=O)N(C)[C@@H](CC(C)C)C(=O)N[C@@H]([C@@H](C)CC)C(=O)N(C)CC(=O)N(C)[C@H]3C/C=C\CCN(C3=O)[C@@H](Cc3ccc(F)cc3)C(=O)N(C)CC(=O)N[C@@H](CCc3ccc4sccc4c3)C(=O)N2C1 [PP1427] | – | – | B (a compound having 3 or more and less than 10 is denoted as B) | A (a compound having 10 or more and less than 20 is denoted as A) | – | –
8 | 152 | 2.4 | – | – | C#CCN1CC(=O)N(C)[C@H]2C/C=C\CCN(C2=O)[C@@H](Cc2ccc(C)cc2)C(=O)N(C)CC(=O)N[C@@H](CCc2cc(F)c(C(F)(F)F)c(F)c2)C(=O)N2C[C@H](OCC)C[C@H]2C(=O)NC2(CCC2)C(=O)N(C)[C@@H](C2CCCC2)C(=O)N(C)[C@H](C(=O)N(C)C)CC(=O)N(C)[C@@H](CCC)C(=O)N[C@@H](CC(C)C)C1=O [PP2536] | B (a compound having 3 or more and less than 10 is denoted as B) | A (a compound having 10 or more and less than 20 is denoted as A) | – | – | – | –
9 | 13.9 | 0.4 | – | – | CCC[C@H]1C(=O)N[C@@H]([C@@H](C)CC)C(=O)N(C2CC2)CC(=O)N(C)[C@H]2C/C=C\CCN(C2=O)[C@@H](Cc2ccc(C)cc2)C(=O)N(C)CC(=O)N[C@@H](CCc2ccc(C(F)(F)F)c(OC)c2)C(=O)N2C[C@H](OCC)C[C@H]2C(=O)NC2(CC(C)(C)C2)C(=O)N(C)[C@@H](CC(C)(C)C)C(=O)N(C)[C@H](C(=O)N(C)C)CC(=O)N1C [PP2722] | B (a compound having 3 or more and less than 10 is denoted as B) | B (a compound having 3 or more and less than 10 is denoted as B) | – | – | – | –
10 | 3.3 | – | – | 0.79 | CCC[C@H]1C(=O)N[C@@H]([C@@H](C)CC)C(=O)N(C2CC2)CC(=O)N(C)[C@H]2C/C=C\CCN(C2=O)[C@@H](CC2CCCCC2)C(=O)N(C)CC(=O)N[C@@H](CCc2ccc(C(F)(F)F)c(OC)c2)C(=O)N2C[C@@H](C)C[C@H]2C(=O)N(C)C2(CCC2)C(=O)N(C)[C@@H](C2CCCC2)C(=O)N(C)[C@H](C(=O)N(C)C)CC(=O)N1C [PP2372] | – | – | – | – | B (a compound having 3 or more and less than 10 is denoted as B) | A (a compound having 10 or more and less than 20 is denoted as A)
11 | 43.9 | – | – | 0.094 | CC[C@H](C)[C@@H]1NC(=O)[C@H](CC)N(C)C(=O)C[C@@H](C(=O)N(C)C)N(C)C(=O)[C@H](C2CCCC2)N(C)C(=O)C2(CCC2)NC(=O)[C@@H]2CCCN2C(=O)[C@H](CCc2cc(F)c(C(F)(F)F)c(F)c2)NC(=O)CN(C)C(=O)[C@H](Cc2ccc(C(F)(F)F)cc2)N2CC/C=C\C[C@@H](C2=O)N(C)C(=O)CN(C)C1=O [PP1135, (2S,8S,14S,20S,23S,27S,30S,36S,38Z)-20-cyclopentyl-8-[2-[3,5-difluoro-4-(trifluoromethyl)phenyl]ethyl]-27-ethyl-N,N,4,19,22,26,32,35-octamethyl-30-[(1S)-1-methylpropyl]-3,6,9,15,18,21,25,28,31,34,42-undecaoxo-2-[[4-(trifluoromethyl)phenyl]methyl]spiro[1,4,7,10,16,19,22,26,29,32,35-undecazatricyclo[34.5.1.0^10,14]dotetracont-38-ene-17,1′-cyclobutane]-23-carboxamide] | – | – | – | – | A (a compound having 10 or more and less than 20 is denoted as A) | A (a compound having 10 or more and less than 20 is denoted as A)
12 | 3.3 | – | – | 0.02 | CCCOC[C@H]1C(=O)N[C@@H]([C@@H](C)CC)C(=O)N(C)CC(=O)N(C)[C@H]2C/C=C\CCN(C2=O)[C@@H](Cc2ccc(C)cc2)C(=O)N(C)CC(=O)N[C@@H](CCc2ccc(C(F)(F)F)c(OC)c2)C(=O)N2C[C@@H](C)C[C@H]2C(=O)N(C)C2(CCC2)C(=O)N(C)[C@@H](C2CCCC2)C(=O)N(C)[C@H](C(=O)N(C)C)CC(=O)N1C [PP2365] | – | – | – | – | B (a compound having 3 or more and less than 10 is denoted as B) | A (a compound having 10 or more and less than 20 is denoted as A)
13 | 4.7 | – | – | 0.051 | CCOC[C@H]1C(=O)N[C@@H]([C@@H](C)CC)C(=O)N(C)CC(=O)N(C)[C@H]2C/C=C\CCN(C2=O)[C@@H](Cc2ccc(C)cc2)C(=O)N(C)CC(=O)N[C@@H](CCc2cc(F)c(C(F)(F)F)c(F)c2)C(=O)N2C[C@H](OCC)C[C@H]2C(=O)NC2(CC(C)(C)C2)C(=O)N(C)[C@@H](C2CCCC2)C(=O)N(C)[C@H](C(=O)N(C)C)CC(=O)N1C [PP2397] | – | – | – | – | A (a compound having 10 or more and less than 20 is denoted as A) | A (a compound having 10 or more and less than 20 is denoted as A)
